Test results: patent publication US20260184687A1, “DIHYDROINDENE DERIVATIVES AS MALT1 INHIBITORS” (C4X Discovery Limited, priority 2022, published 2026)
pIC50: −log10 of the molar value.

Biological target: T1, FL hMALT1 enzyme (Homo sapiens, UniProt Q9UDY8)
T1 sequence (Q9UDY8 1-824): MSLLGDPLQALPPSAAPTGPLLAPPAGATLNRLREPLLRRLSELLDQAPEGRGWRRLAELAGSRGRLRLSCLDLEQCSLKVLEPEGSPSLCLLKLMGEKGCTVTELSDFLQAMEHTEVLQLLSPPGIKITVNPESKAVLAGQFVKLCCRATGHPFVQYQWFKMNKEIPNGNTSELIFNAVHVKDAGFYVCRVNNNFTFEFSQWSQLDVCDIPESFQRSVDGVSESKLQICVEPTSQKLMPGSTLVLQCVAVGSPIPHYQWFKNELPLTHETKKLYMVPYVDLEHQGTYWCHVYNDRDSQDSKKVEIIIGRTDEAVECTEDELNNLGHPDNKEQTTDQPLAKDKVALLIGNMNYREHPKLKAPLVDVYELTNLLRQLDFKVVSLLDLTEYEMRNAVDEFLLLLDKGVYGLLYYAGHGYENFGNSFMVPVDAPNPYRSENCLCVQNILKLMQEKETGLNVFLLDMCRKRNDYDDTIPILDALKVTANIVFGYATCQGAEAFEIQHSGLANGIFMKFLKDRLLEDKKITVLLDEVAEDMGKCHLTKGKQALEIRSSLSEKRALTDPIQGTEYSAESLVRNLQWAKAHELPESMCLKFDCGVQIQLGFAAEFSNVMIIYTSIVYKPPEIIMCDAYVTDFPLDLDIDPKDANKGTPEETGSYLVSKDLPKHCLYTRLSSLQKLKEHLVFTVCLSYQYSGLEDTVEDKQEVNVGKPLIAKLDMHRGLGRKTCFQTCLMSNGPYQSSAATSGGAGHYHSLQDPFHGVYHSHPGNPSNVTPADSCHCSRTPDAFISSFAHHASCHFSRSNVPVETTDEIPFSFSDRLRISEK
Assay: biochemical
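Note: Cell-free protease assay: enzyme preincubated with compound 30 min at room temperature, then cleavage of fluorogenic Ac-LVSR-AMC substrate (100 µM) tracked by fluorescence (ex 360/em 460 nm).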

Procedure: MALT1 protease activity was assessed in vitro by measuring the cleavage of a fluorogenic tetrapeptide substrate.
For a higher sensitivity assay, commercially available FL hMALT1 enzyme (Abcam, 1-10 nM) was incubated with substrate (Ac-LVSR-AMC, 100 μM) in reaction buffer comprising 50 mM HEPES (pH7.0), 25 mM KCl, 0.1% (v/v) CHAPS, 1 mM TCEP and 0.7 M sodium citrate.
Test compounds dissolved in DMSO were dispensed into assay plates (384-well, black, shallow ProxiPlates). 7 μl enzyme solution was added and incubated at room temperature for 30 minutes to allow compound binding to occur. 2 μl substrate solution was then added and the fluorescence (excitation 360 nm, emission 460 nm) read every 15 minutes using a suitable plate reader. Final assay DMSO concentration was 1%. […] IC50 values were calculated using GraphPad Prism using a 4-parameter non-linear regression curve fit.

`CN(C(=O)C1CCS(=O)(=O)CC1)[C@@H](c1ccc(NC2Cc3ccc(C(F)(F)F)cc3C2)cn1)C(F)(F)F` (single isomer, unassigned) [Example 256] gave a pIC50 of 5.96.
Molecule `CN(C(=O)C1CC2(CCN2)C1)[C@@H](c1ccc(NC2Cc3ccccc3C2(C)C)cn1)C(F)(F)F` (single isomer, unassigned) [Example 155] has a pIC50 of 6.74.
`CNC(=O)C1(C(=O)N(C)[C@@H](c2ccc(NC3Cc4ccc(Cl)c(F)c4C3)cn2)C(F)(F)F)CC1` (stereo partly drawn) [Example 368, N-((1S)-1-(5-((5-Chloro-4-fluoro-2,3-dihydro-1H-inden-2-yl)amino)pyridin-2-yl)-2,2,2-trifluoroethyl)-N,N′-dimethylcyclopropane-1,1-dicarboxamide] was tested, and the pIC50 was 6.57.
With `CN(C(=O)C1CCS(=O)(=O)CC1)[C@@H](c1ccc(NC2Cc3ccc(Cl)c(C4CC4)c3C2)cn1)C(F)(F)F` (single isomer, unassigned) [Example 305] the pIC50 was 6.52.
With `CN(C(=O)C1CCS(=O)(=O)CC1)[C@@H](c1ccc(N[C@@H]2Cc3ccc(Cl)cc3C2)cn1)C(F)(F)F` (single isomer, unassigned) [Example 200] the pIC50 was 5.96.
`CN(C(=O)C1CCS(=O)(=O)CC1)[C@@H](c1ccc(NC2Cc3ccc(F)c(Cl)c3C2)cn1)C(F)(F)F` (single isomer, unassigned) [Example 266] was tested, and the pIC50 was 5.80.
Molecule `Cc1nnc(N2CC(C(=O)N(C)[C@@H](c3ccc(NC4Cc5ccc(Cl)c(F)c5C4)cn3)C(F)(F)F)C2)o1` (single isomer, unassigned) [Example 364] has a pIC50 of 6.92.
Work on `CN(C(=O)[C@H]1CCC(=O)NC1)[C@@H](c1ccc(NC2Cc3ccc(Cl)c(F)c3C2)nc1)C(F)(F)F` (single isomer, unassigned) [Example 389] yielded a pIC50 of 7.40.
In the case of `COc1cccc2c1CC(Nc1ccc([C@H](N(C)C(=O)C3CCS(=O)(=O)CC3)C(F)(F)F)nc1)C2` (single isomer, unassigned) [Example 178], the pIC50 was 6.59.
`COCc1c(Cl)ccc2c1CC(Nc1ccc([C@H](N(C)C(=O)C3CCS(=O)(=O)CC3)C(F)(F)F)nc1)C2` (stereo partly drawn) [Example 356, N-((1S)-1-(5-((5-Chloro-4-(methoxymethyl)-2,3-dihydro-1H-inden-2-yl)amino)pyridin-2-yl)-2,2,2-trifluoroethyl)-N-methyltetrahydro-2H-thiopyran-4-carboxamide 1,1-dioxide] was tested, and the pIC50 was 6.68.
With `CN1CCCC(C(=O)N(C)[C@@H](c2ccc(NC3Cc4ccccc4C3(C)C)cn2)C(F)(F)F)C1` (single isomer, unassigned) [Example 128] the pIC50 was 6.40.
`CN(C(=O)[C@H]1C[C@@]2(COC(=O)N2)C1)[C@@H](c1ccc(NC2Cc3ccccc3C2(C)C)cn1)C(F)(F)F` (single isomer, unassigned) [Example 207] was tested, and the pIC50 was 6.92.
With `CN(C(=O)CNS(C)(=O)=O)[C@@H](c1ccc(NC2Cc3ccc(Cl)c(Cl)c3C2)cn1)C(F)(F)F` (single isomer, unassigned) [Example 380] the pIC50 was 5.73.
Molecule `CC(=O)N1CC(C(=O)N(C)[C@@H](c2ccc(NC3Cc4ccc(Cl)c(Cl)c4C3)cn2)C(F)(F)F)C1` (single isomer, unassigned) [Example 376] has a pIC50 of 5.92.
`CN(C(=O)[C@H]1C[C@@H](O)C1)[C@@H](c1ccc(NC2Cc3ccc(Cl)c(F)c3C2)cn1)C(F)(F)F` (single isomer, unassigned) [Example 382] gave a pIC50 of 7.02.
For `CN(C(=O)CN1CCCS1(=O)=O)[C@@H](c1ccc(NC2Cc3ccc(Cl)c(F)c3C2)cn1)C(F)(F)F` (single isomer, unassigned) [Example 361], the pIC50 was 5.14.
For `CN(C(=O)C1CCS(=O)(=O)CC1)[C@@H](c1ccc(NC2Cc3cccc(C(F)(F)F)c3C2)cn1)C(F)(F)F` (single isomer, unassigned) [Example 190], the pIC50 was 5.48.
`CN(C(=O)[C@@H]1CNC(=O)C1)[C@@H](c1ccc(NC2Cc3ccc(Cl)c(Cl)c3C2)cn1)C(F)(F)F` (single isomer, unassigned) [Example 318] gave a pIC50 of 6.18.
Work on `CN(C(=O)[C@H]1C[C@@H](O)C1)[C@@H](c1ccc(NC2Cc3ccc(Cl)c(F)c3C2)cn1)C(F)(F)F` (single isomer, unassigned) [Example 383] yielded a pIC50 of 5.80.
